Laboratory results taken from patent US20250064789A1, “KETOAMIDE DERIVATIVES AND PHARMACEUTICAL USES THEREOF” (priority 2022, published 2025).
Like-named read-outs stand apart in the source and are kept apart here.

Biological target: recombinant SARS-CoV-2 M^pro (Severe acute respiratory syndrome coronavirus 2 (2019-nCoV) (SARS-CoV-2), UniProt P0DTD1)
Assay: Inhibition of SARS-CoV-2 M^pro enzyme activity (fluorescent substrate assay)
Assay type: biochemical
Conditions: inhibition of SARS-CoV-2 M^pro enzyme activity, read-out: IC50

Row | Structure (SMILES) | IC50 (values in nM) [nM] | IC50 (values given in μM) [nM]
1 | O=C(NCc1ccccn1)C(=O)[C@@H](Cc1ccccc1)NC(=O)C1(C(=O)Nc2ccc(F)cc2)CC1 [Compound 322] | 125 ± 6 | 
2 | O=C(CN1C(=O)CN(c2cccc(Cl)c2)C1=O)N[C@H](Cc1ccccc1)C(=O)C(=O)NCc1nccs1 [Compound 527] | 44.3 ± 1.1 | 
3 | O=C(CNC(=O)c1cc2ccccc2o1)N[C@H](Cc1ccccc1)C(=O)C(=O)NCc1ccccn1 [Compound 444] | 214.3 ± 1.2 | 
4 | C[C@@H](NC(=O)COc1ccc(Cl)cc1F)C(=O)N[C@H](Cc1ccccc1)C(=O)C(=O)NCc1ccccn1 [Compound 86] | 70.5 ± 2.5 | 
5 | O=C(NCc1ccccn1)C(=O)[C@@H](Cc1ccccc1)NC(=O)[C@@H]1CC(F)(F)CN1C(=O)[C@@H]1C[C@@H]2[C@H](C1)C2(F)F [Compound 453] | 37.2 ± 0.2 | 
6 | O=C(NCc1ccccn1)C(=O)[C@@H](Cc1ccccc1)NC(=O)C1(NC(=O)[C@@H]2C[C@@H]3[C@H](C2)C3(F)F)CC(F)(F)C1 [Compound 235] | 28.6 ± 2.1 | 
7 | COC[C@@H](NC(=O)C1CCCC(F)(F)C1)C(=O)N[C@H](Cc1cccc(Cl)c1)C(=O)C(=O)NCc1nccs1 (stereo partly drawn) [Compound 566] | 33.2 ± 2.3 | 
8 | C[C@@H](NC(=O)C1(F)CCCCC1)C(=O)N[C@H](Cc1ccccc1)C(=O)C(=O)NCc1ccccn1 [Compound 128] | 9.4 ± 1.3 | 
9 | O=C(CNC(=O)C1CCC(F)(F)CC1)N[C@H](Cc1cccc(Cl)c1)C(=O)C(=O)NCc1ccccn1 [Compound 448] | 59.9 ± 0.5 | 
10 | C[C@@H](NC(=O)CC1CCS(=O)(=O)CC1)C(=O)N[C@H](Cc1ccccc1)C(=O)C(=O)NCc1ccccn1 [Compound 131] | 36.8 ± 0.1 | 
11 | C[C@@H](NC(=O)CCc1ccccc1)C(=O)N[C@H](Cc1ccccc1)C(=O)C(=O)NCc1ccccn1 [Compound 66] | 11.7 ± 0.1 | 
12 | C[C@@H](NC(=O)C1CCCCC1)C(=O)N[C@H](Cc1ccccc1)C(=O)C(=O)NCc1ccccn1 [Compound 146] | 12.3 ± 0.2 | 
13 | CC(C)[C@@H](NC(=O)C1CCC(F)(F)CC1)C(=O)N[C@H](Cc1ccccc1)C(=O)C(=O)NCc1ccccn1 [Compound 242] | 26.8 ± 1.8 | 
14 | O=C(Cc1noc(-c2ccc(F)c(C(F)(F)F)c2)n1)N[C@H](Cc1ccccc1)C(=O)C(=O)NCc1nccs1 [Compound 524] | 32.8 ± 3.2 | 
15 | O=C(NCc1ccccn1)C(=O)[C@@H](Cc1ccccc1)NC(=O)C1(NC(=O)c2cc(OC(F)(F)F)ccc2F)CC1 [Compound 165] | 20.3 ± 0.2 | 
16 | O=C(NCc1ccccn1)C(=O)[C@@H](Cc1ccccc1)NC(=O)[C@@H]1C[C@@H]2CCCC[C@@H]2N1C(=O)C1CCC(F)(F)CC1 [Compound 264] |  | > 2500
17 | C[C@@H](NC(=O)[C@H]1CC[C@H](C#N)CC1)C(=O)N[C@H](Cc1ccccc1)C(=O)C(=O)NCc1ccccn1 [Compound 117] | 46.1 ± 0.3 | 
18 | O=C(NCc1ccccn1)C(=O)[C@@H](Cc1ccccc1)NC(=O)C1(NC(=O)c2ccc(F)cc2)CCC1 [Compound 215] | 13.7 ± 0.9 | 
19 | CC(C)(C)[C@H](NC(=O)C(F)(F)F)C(=O)N[C@H](Cc1ccccc1)C(=O)C(=O)NCc1ccccn1 [Compound 245] |  | > 5000
20 | COC[C@@H](NC(=O)C1CCCC(F)(F)C1)C(=O)N[C@H](Cc1ccccc1)C(=O)C(=O)NCc1nnc(C)o1 (stereo partly drawn) [Compound 559] |  | > 2500
21 | C[C@@H](NC(=O)[C@@H]1C[C@@H]2[C@H](C1)C2(F)F)C(=O)N[C@H](Cc1ccccc1)C(=O)C(=O)NCc1cscn1 [Compound 420] | 10.8 ± 0.7 | 

Row | Structure (SMILES) | IC50 (values in nM) [nM] | IC50 (values given in μM) [nM]
22 | CC[C@@H](OCc1ccc(F)cc1)C(=O)N[C@H](Cc1ccccc1)C(=O)C(=O)NCc1ccc(Cl)cn1 [Compound 48] | 30.9 ± 0.3 | 
23 | C[C@@H](NC(=O)N1CCC(F)(F)CC1)C(=O)N[C@H](Cc1ccccc1)C(=O)C(=O)NCc1nccs1 [Compound 414] | 95.9 ± 9.7 | 
24 | COC[C@@H](NC(=O)CC1CCC(F)(F)CC1)C(=O)N[C@H](Cc1ccccc1)C(=O)C(=O)NCc1cscn1 [Compound 432] | 11.5 ± 0.1 | 
25 | O=C(CNC(=O)C1CC2CCC1C2)N[C@H](Cc1ccccc1)C(=O)C(=O)NCc1cscn1 (stereo partly drawn) [Compound 427] | 20.9 ± 0.4 | 
26 | C[C@@H](NC(=O)C1CCS(=O)(=O)CC1)C(=O)N[C@H](Cc1ccccc1)C(=O)C(=O)NCc1ccccn1 [Compound 116] | 130.1 ± 0.4 | 
27 | O=C(NCc1nccs1)C(=O)[C@@H](Cc1ccccc1)NC(=O)[C@@H](CO)NC(=O)C1CCCC(F)(F)C1 (stereo partly drawn) [Compound 570] | 40.6 ± 2 | 
28 | Cc1cccc(CNC(=O)C(=O)[C@@H](Cc2ccccc2)NC(=O)[C@@H](C)OCc2ccccc2)n1 [Compound 28] |  | > 5000
29 | O=C(Cn1cc(-c2cccc(F)c2)cn1)N[C@H](Cc1ccccc1)C(=O)C(=O)NCc1nccs1 [Compound 492] | 66.3 ± 6.1 | 
30 | C[C@@H](NS(=O)(=O)c1ccc(F)cc1)C(=O)N[C@H](Cc1ccccc1)C(=O)C(=O)NCc1ccccn1 [Compound 331, (R)-3-((R)-2-((4-fluorophenyl)sulfonamido)propionamido)-2-oxo-4-phenyl-N-(pyridin-2-ylmethyl)butyramide] | 101 ± 2.8 | 
31 | O=C(Cc1ccccc1)N[C@H](Cc1ccccc1)C(=O)C(=O)NCc1nccs1 [Compound 474] | 949 ± 39.9 | 
32 | O=C(Cn1nc(-c2ccc(F)cc2)cc1C(F)(F)F)N[C@H](Cc1ccccc1)C(=O)C(=O)NCc1nccs1 [Compound 530] | 32.5 ± 1.1 | 
33 | N#Cc1cc(F)cc(C(=O)NCC(=O)N[C@H](Cc2ccccc2)C(=O)C(=O)NCc2ccccn2)c1 [Compound 442] | 20.6 ± 1 | 
34 | O=C(NCc1ccccn1)C(=O)[C@@H](Cc1ccccc1)NC(=O)[C@@H]1[C@H]2CCC[C@H]2CN1C(=O)NC1CCCCC1 [Compound 258] | 93.2 ± 0.6 | 
35 | O=C(NCc1nccs1)C(=O)[C@@H](Cc1ccccc1)NC(=O)[C@H]1COCCN1C(=O)C1CCC(F)(F)CC1 [Compound 407] | 21.4 ± 0.3 | 
36 | O=C(NCc1ccccn1)C(=O)[C@@H](Cc1ccccc1)NC(=O)C1(NC(=O)C2CCC(F)(F)CC2)Cc2ccccc2C1 [Compound 243] | 18.4 ± 0.1 | 
37 | C[C@@H](OCc1ccc(F)cc1)C(=O)N[C@H](Cc1ccc2ccccc2c1)C(=O)C(=O)NCc1ccc(Cl)cn1 [Compound 53] | 187.8 ± 0.7 | 
38 | C[C@@H](NC(=O)CC1CCC(F)(F)CC1)C(=O)N[C@H](Cc1ccccc1)C(=O)C(=O)NCc1ccccn1 [Compound 125] | 19.7 ± 1.2 | 
39 | O=C(CN1C(=O)CN(c2cc(F)cc(F)c2)C1=O)N[C@H](Cc1ccccc1)C(=O)C(=O)NCc1nccs1 [Compound 523] | 123 ± 5.1 | 
40 | CC1(C)C(C(=O)NC2CC(F)(F)C2)C1C(=O)N[C@H](Cc1ccccc1)C(=O)C(=O)NCc1nccs1 (stereo partly drawn) [Compound 556] | 203.5 ± 0.6 | 
41 | CC(C)(NC(=O)NC1CCC(F)(F)CC1)C(=O)N[C@H](Cc1ccccc1)C(=O)C(=O)NCc1ccccn1 [Compound 301] | 9.2 ± 0.4 | 
42 | O=C(NCc1ccccn1)C(=O)[C@@H](Cc1ccccc1)NC(=O)[C@H]1COCCN1C(=O)CCC1CCC(F)(F)CC1 [Compound 291] | 13.1 ± 2.8 | 

Row | Structure (SMILES) | IC50 (values in nM) [nM] | IC50 (values given in μM) [nM]
43 | O=C(CC1CCC(F)(F)CC1)NCC(=O)N[C@H](Cc1ccccc1)C(=O)C(=O)NCc1cscn1 [Compound 422] | 17.1 ± 0.1 | 
44 | O=C(NCc1nccs1)C(=O)[C@@H](Cc1ccccc1)NC(=O)[C@H]1CC(F)(F)CN1C(=O)[C@@H]1C[C@@H]2[C@H](C1)C2(F)F [Compound 406] | 52.7 ± 1.1 | 
45 | O=C(CNC(=O)c1cnccn1)N[C@H](Cc1ccccc1)C(=O)C(=O)NCc1ccccn1 [Compound 154] | 193 ± 2 | 
46 | O=C(NCc1ccccn1)C(=O)[C@@H](Cc1ccccc1)NC(=O)C1(NC(=O)c2cc(Br)cc(OC(F)(F)F)c2)CC1 [Compound 163] | 20.8 ± 0.7 | 
47 | C[C@@H](NC(=O)c1ccccn1)C(=O)N[C@H](Cc1ccccc1)C(=O)C(=O)NCc1ccccn1 [Compound 141] |  | 1160 ± 240
48 | CC(C)[C@@H](NC(=O)c1ccc(F)cc1)C(=O)N[C@H](Cc1ccccc1)C(=O)C(=O)NCc1ccccn1 [Compound 247] | 38.2 ± 2.8 | 
49 | O=C(NCc1ccccn1)C(=O)[C@@H](Cc1ccccc1)NC(=O)C1(NC(=O)C2CCC(F)(F)CC2)CCC1 [Compound 187] | 10.7 ± 0.5 | 
50 | O=C(NCc1cscn1)C(=O)[C@@H](Cc1ccccc1)NC(=O)[C@H]1COCCN1C(=O)C1CCC(F)(F)C1 (stereo partly drawn) [Compound 437] | 61.1 ± 1.2 | 
51 | CS(=O)(=O)CC[C@@H](NC(=O)C1CCCC(F)(F)C1)C(=O)N[C@H](Cc1ccccc1)C(=O)C(=O)NCc1nccs1 (stereo partly drawn) [Compound 568] | 70.7 ± 1.8 | 
52 | O=C(NC1(C(=O)N[C@H](Cc2ccccc2)C(=O)C(=O)NCc2ccccn2)CCC1)O[C@H]1CO[C@H]2OCC[C@H]21 [Compound 315] | 20.2 ± 3.3 | 
53 | O=C(CNC(=O)C1CCC(F)(F)CC1)N[C@H](Cc1ccccc1Cl)C(=O)C(=O)NCc1ccccn1 [Compound 449] | 45.3 ± 1.2 | 
54 | CC(C)(C(=O)N[C@H](Cc1ccccc1)C(=O)C(=O)NCc1ccccn1)n1cc(-c2cccc(F)c2)cn1 [Compound 329] | 19.4 ± 1.8 | 
55 | C[C@@H](NC(=O)c1cnn(-c2ccccc2)c1)C(=O)N[C@H](Cc1ccccc1)C(=O)C(=O)NCc1ccccn1 [Compound 132] | 158 ± 26.2 | 
56 | COC[C@@H](NC(=O)C1CCCC(F)(F)C1)C(=O)N[C@H](Cc1ccccc1)C(=O)C(=O)NCc1cscn1 (stereo partly drawn) [Compound 544] | 22.5 ± 0.9 | 
57 | Cc1cc(-c2cc(Cl)cc(C#N)c2)nn1CC(=O)N[C@H](Cc1ccccc1)C(=O)C(=O)NCc1nccs1 [Compound 515] | 26.2 ± 0.3 | 
58 | C[C@@H](NC(=O)COc1ccc(Cl)cc1)C(=O)N[C@H](Cc1ccccc1)C(=O)C(=O)NCc1ccccn1 [Compound 84] | 40 ± 2.4 | 
59 | O=C(NCc1ccccn1)C(=O)[C@@H](Cc1ccccc1)NC(=O)[C@H]1CCCCN1C(=O)CCC1CCC(F)(F)CC1 [Compound 285] | 17.1 ± 0.2 | 
60 | O=C(CNC(=O)N1CCC(F)(F)CC1)N[C@H](Cc1ccccc1)C(=O)C(=O)NCc1ccccn1 [Compound 304] | 53.8 ± 5.8 | 
61 | C[C@@H](NC(=O)C1CC1c1ccccc1)C(=O)N[C@H](Cc1ccccc1)C(=O)C(=O)NCc1ccccn1 (stereo partly drawn) [Compound 104] | 16.8 ± 1.1 | 
62 | O=C(NCc1nccs1)C(=O)[C@@H](Cc1ccccc1)NC(=O)[C@H]1COCCN1C(=O)[C@@H]1C[C@@H]2[C@H](C1)C2(F)F [Compound 412] | 24.8 ± 0.8 | 
63 | O=C(NCc1ccccn1)C(=O)[C@@H](Cc1ccccc1)NC(=O)C1(NC(=O)C2CCC(F)(F)CC2)CC(F)(F)C1 [Compound 227] | 19 ± 0.3 | 
